# Reference: ChEMBL document CHEMBL1201862, “PubChem BioAssay data set” (2004)
# Activity calls are given as the source filed them.
# Assays:
# [1] = intracellular Trypanosoma cruzi inhibitors in host cells – cell-based, plate reader, cherry-pick samples, set 3, dose response (AID 651818); assay type: functional;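 also: compounds incubated with infected cells for about four days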
# [2] = biological target: T1, High affinity choline transporter 1 (Homo sapiens, UniProt Q9GZV3); assay: CHT inhibitors, dose response, cell-based, 5-point CRC, membrane potential dye (AID 504840); assay type: functional
# T1 sequence (Q9GZV3 whole entry): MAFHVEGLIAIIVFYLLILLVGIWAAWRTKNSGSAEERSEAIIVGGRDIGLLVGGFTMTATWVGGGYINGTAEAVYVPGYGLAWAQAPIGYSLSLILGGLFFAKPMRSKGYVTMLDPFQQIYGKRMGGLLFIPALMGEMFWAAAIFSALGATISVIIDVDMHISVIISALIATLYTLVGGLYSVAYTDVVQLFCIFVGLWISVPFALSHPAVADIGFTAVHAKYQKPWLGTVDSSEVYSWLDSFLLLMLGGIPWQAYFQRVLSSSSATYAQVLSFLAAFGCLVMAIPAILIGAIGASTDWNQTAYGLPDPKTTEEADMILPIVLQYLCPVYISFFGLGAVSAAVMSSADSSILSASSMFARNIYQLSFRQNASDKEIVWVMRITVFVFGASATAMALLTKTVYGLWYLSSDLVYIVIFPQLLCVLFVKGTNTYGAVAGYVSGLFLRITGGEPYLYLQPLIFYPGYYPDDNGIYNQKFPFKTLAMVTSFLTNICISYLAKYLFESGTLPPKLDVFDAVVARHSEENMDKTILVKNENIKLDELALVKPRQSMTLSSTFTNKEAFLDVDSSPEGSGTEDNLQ
# cells [3] = assay type: functional, cell-based
# [4] = biological target: T2, Trace amine-associated receptor 1 (Homo sapiens, UniProt Q96RJ0); assay: Fluorescence-based cell-based high throughput dose response assay to identify agonists of the human trace amine associated receptor 1 (TAAR1).; assay type: functional
# T2 sequence (Q96RJ0 whole entry): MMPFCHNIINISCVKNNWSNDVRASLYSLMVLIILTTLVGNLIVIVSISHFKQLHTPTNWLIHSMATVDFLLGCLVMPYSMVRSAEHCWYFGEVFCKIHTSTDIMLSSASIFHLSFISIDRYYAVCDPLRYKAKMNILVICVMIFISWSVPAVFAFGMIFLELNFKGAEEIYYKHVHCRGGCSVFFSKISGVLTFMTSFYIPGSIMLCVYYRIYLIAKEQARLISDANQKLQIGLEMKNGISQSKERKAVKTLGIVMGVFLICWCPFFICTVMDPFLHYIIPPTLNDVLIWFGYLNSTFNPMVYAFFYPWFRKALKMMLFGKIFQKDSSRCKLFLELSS
# [5] = biological target: T2, Trace amine-associated receptor 1; assay: Counterscreen for agonists of the human trace amine associated receptor 1 (hTAAR1): Fluorescence-based cell-based high throughput dose response assay to identify hTAAR1 agonist that also desensitize TAAR1 receptor response.; assay type: functional
# cells [6] = assay type: functional, cell-based; remark: listed apart in the source
# Paired box protein Pax-8 = Paired box protein Pax-8 (Homo sapiens, UniProt Q06710); assay: inhibitors of PAX8-driven TPO luciferase reporter, dose response, RMG-I cells, cherry-pick (AID 687027); assay type: functional, cell-based;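 also: luciferase reporter driven by Pax8 target thyroperoxidase promoter measured by SteadyGlo luminescence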
# [7] = non-specific cell cytotoxicity, dose response, cytotoxicity control for PAX8 inhibitor project, plate reader, dry powder samples (AID 743021); assay type: functional, cell-based
# [8] = cytotoxicity in OVCAR8 ovarian cancer cells, dose response, PAX8 project, cell-based, plate reader, dry powder samples (AID 743197); assay type: functional; settings: OVCAR-8
# Cytochrome P450 2C19 = Cytochrome P450 2C19 (Homo sapiens, UniProt P33261); assay: Cytochrome panel assay with activity outcomes. Panel member name: p450-cyp2c19 Compounds with AC50 equal or less than 10 uM are considered active; assay type: functional; settings: read-out: AC50
# Cytochrome P450 2D6 = Cytochrome P450 2D6 (Homo sapiens, UniProt P10635);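 also: CYP2D6 member of a cytochrome P450 panel assay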
# Cytochrome P450 2C9 = Cytochrome P450 2C9 (Homo sapiens, UniProt P11712)
# [9] = biological target: T3, Ubiquitin-conjugating enzyme E2 N (Homo sapiens, UniProt P61088); assay type: functional;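 also: Dose-response confirmation in a TR-FRET assay detecting UBC13-driven polyubiquitin chain formation, inhibition measured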
# T3 sequence (P61088 whole entry): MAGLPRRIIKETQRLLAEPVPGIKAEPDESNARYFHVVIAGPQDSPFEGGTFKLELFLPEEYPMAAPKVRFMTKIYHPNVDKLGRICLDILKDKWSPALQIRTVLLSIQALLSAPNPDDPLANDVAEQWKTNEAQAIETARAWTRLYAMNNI
# Large T antigen = Large T antigen (Simian virus 40, UniProt P03070); assay type: functional, Betapolyomavirus macacae;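 also: Confirmatory-stage PubChem screen for compounds that inhibit SV40 T antigen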
# [10] = biological target: T4, Histone-lysine N-methyltransferase NSD2 (Homo sapiens, UniProt O96028); assay type: biochemical
# T4 sequence (O96028 whole entry): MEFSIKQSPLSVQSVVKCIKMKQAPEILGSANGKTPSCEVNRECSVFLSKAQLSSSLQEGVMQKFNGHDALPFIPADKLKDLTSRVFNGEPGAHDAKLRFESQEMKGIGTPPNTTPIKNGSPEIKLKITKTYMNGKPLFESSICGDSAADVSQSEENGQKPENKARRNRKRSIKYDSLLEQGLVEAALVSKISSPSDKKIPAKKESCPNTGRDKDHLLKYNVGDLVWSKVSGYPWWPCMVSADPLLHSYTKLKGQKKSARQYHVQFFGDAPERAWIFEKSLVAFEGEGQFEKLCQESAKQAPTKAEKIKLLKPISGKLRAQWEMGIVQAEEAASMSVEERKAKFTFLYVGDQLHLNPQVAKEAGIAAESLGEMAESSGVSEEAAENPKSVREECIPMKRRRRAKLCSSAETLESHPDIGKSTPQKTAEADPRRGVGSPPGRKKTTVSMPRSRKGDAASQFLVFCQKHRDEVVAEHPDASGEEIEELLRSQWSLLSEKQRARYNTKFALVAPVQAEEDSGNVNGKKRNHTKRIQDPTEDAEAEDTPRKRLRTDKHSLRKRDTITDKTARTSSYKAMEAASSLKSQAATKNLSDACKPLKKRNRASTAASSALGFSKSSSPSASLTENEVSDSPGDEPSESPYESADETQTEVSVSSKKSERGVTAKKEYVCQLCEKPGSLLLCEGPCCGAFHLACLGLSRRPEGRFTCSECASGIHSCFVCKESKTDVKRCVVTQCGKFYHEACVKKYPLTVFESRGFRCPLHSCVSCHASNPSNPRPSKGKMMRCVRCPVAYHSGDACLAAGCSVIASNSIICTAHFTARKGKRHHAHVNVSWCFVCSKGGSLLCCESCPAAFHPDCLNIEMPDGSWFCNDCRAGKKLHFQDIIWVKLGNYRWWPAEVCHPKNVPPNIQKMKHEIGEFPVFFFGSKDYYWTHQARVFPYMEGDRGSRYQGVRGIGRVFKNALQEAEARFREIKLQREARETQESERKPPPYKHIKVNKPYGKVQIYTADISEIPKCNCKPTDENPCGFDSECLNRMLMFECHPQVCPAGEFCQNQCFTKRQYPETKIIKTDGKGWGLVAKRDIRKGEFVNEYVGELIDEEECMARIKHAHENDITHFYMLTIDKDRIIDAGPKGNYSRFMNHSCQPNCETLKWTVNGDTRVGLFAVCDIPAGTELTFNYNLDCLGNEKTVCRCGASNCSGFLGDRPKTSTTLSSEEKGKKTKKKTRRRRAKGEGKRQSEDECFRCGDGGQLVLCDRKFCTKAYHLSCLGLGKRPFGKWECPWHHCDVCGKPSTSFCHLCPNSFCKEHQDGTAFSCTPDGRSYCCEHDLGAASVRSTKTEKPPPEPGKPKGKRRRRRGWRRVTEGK
# [11] = biological target: T5, Corticotropin-releasing factor receptor 2/Corticotropin-releasing factor-binding protein (Homo sapiens, UniProt P24387+Q13324); assay: Dose Response confirmation of uHTS hits for small molecule antagonists of the CRF-binding protein and CRF-R2 receptor complex.; assay type: functional; settings: read-out: IC50_Mean
# T5 sequence (Q13324 whole entry): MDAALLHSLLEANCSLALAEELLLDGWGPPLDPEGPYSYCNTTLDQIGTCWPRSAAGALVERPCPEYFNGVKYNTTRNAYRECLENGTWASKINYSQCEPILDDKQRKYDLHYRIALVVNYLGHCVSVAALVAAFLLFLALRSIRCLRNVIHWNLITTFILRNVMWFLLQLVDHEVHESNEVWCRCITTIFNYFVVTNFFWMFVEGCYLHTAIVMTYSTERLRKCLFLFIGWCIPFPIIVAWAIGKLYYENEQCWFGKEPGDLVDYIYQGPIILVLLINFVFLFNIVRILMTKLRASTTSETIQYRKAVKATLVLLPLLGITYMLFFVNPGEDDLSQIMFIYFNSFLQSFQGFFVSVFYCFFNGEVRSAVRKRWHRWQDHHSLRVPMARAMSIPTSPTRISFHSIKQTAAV
# T5 sequence (P24387 whole entry): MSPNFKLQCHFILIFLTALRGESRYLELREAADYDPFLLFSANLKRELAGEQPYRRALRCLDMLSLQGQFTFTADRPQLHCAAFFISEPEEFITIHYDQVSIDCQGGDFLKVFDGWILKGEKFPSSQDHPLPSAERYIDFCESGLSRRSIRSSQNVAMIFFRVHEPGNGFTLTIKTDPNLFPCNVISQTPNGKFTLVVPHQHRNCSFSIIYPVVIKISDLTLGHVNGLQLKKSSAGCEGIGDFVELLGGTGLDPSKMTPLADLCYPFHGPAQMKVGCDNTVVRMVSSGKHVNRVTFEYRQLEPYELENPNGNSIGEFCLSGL
# [12] = biological target: T5, Corticotropin-releasing factor receptor 2/Corticotropin-releasing factor-binding protein; assay: activators of CRF receptor 2 with binding protein – uHTS hits, confirmation (AID 602473); assay type: functional; settings: read-out: EC50_Mean
# Sequence of Cytochrome P450 2C9 (P11712 whole entry): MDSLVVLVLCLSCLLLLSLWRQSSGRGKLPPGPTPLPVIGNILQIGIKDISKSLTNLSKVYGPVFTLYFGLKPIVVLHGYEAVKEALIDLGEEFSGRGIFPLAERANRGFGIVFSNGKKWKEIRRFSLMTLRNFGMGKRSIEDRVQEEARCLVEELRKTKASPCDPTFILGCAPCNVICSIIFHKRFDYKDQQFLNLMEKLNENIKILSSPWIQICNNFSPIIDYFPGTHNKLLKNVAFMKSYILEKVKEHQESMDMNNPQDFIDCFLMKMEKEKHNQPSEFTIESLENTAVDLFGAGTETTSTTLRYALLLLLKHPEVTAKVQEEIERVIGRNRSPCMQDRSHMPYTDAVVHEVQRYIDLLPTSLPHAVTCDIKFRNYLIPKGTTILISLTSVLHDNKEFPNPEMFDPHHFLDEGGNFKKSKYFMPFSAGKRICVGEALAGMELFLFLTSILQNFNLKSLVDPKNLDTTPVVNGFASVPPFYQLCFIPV
# Sequence of Large T antigen (P03070 whole entry): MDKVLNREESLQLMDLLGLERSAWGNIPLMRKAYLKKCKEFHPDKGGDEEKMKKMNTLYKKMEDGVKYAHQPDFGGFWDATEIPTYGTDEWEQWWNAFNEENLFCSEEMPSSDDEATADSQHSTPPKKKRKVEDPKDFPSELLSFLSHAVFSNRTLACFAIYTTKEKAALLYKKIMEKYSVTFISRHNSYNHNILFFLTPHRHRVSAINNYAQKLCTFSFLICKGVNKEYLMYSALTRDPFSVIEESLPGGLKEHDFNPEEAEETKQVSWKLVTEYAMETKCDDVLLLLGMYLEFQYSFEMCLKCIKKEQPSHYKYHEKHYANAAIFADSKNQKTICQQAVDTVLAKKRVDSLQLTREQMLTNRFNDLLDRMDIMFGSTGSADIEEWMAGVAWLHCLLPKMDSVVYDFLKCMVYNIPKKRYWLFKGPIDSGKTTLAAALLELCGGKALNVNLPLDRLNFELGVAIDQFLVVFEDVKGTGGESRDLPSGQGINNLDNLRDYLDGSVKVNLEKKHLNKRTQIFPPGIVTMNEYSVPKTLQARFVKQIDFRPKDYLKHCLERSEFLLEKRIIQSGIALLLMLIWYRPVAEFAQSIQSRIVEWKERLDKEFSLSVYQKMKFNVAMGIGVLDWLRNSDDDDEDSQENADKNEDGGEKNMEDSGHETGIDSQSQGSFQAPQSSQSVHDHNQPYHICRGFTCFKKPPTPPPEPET
# Sequence of Paired box protein Pax-8 (Q06710 whole entry): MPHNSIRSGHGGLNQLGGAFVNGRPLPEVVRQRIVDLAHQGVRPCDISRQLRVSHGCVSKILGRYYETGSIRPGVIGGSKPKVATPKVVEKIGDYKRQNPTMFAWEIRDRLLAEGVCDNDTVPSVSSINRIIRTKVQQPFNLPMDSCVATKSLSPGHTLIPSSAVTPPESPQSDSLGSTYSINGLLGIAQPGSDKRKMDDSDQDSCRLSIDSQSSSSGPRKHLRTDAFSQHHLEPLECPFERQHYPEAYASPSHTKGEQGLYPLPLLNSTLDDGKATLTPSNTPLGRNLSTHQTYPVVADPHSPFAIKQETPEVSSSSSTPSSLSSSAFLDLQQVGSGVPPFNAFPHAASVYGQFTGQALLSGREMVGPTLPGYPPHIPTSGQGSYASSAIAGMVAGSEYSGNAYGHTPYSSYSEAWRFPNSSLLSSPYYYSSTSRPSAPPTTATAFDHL
# Sequence of Cytochrome P450 2C19 (P33261 whole entry): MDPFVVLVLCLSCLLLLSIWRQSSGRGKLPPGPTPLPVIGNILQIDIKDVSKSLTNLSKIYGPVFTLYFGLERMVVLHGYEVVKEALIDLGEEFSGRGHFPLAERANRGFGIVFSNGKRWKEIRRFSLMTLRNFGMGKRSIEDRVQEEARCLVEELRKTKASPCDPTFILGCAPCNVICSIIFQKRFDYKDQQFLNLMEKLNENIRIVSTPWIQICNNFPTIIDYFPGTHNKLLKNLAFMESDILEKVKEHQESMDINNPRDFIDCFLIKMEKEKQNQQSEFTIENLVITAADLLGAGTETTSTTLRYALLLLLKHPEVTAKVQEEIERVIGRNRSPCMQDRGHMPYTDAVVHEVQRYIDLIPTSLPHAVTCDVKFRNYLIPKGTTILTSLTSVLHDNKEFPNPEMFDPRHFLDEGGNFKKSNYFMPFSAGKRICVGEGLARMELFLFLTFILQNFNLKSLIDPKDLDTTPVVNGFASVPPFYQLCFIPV
# Sequence of Cytochrome P450 2D6 (P10635 whole entry): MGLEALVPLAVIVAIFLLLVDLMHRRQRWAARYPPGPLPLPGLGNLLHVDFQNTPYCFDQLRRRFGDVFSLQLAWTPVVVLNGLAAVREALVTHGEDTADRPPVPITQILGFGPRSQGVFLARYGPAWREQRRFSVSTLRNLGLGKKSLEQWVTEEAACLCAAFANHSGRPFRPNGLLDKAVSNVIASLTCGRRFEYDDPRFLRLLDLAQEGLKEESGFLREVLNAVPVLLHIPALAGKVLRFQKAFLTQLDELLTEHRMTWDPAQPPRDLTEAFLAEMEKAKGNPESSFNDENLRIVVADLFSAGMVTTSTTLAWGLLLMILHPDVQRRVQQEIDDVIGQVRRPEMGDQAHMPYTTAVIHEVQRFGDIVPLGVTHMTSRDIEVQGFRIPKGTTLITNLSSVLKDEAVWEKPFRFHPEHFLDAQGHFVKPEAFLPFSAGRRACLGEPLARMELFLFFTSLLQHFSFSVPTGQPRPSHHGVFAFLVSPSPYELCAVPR
smiles,measurement,setting,value
Cc1noc(C)c1S(=O)(=O)Nc1ccc2c(c1)C(=O)N([C@H](C)CO)C[C@H](C)[C@@H](CN(C)Cc1ccc(C(=O)Nc3ccccc3N)cc1)O2,AC50,[1],1.4 µM (active)
O=C(CSc1nc2ccccc2c(=O)n1C1CC1)NCc1ccccc1,IC50,[2],4.79 µM (active)
Cc1cc(C(=O)CN2C(=O)C(=O)N(C3CCCC3)C2=O)c(C)n1CCc1ccccc1,IC50,cells [3],> 29.9 µM (inactive)
same,EC50,[4],1.89 µM (active)
same,IC50,[5],3.28 µM (active)
same,EC50,cells [6],> 29.9 µM (inactive)
CCN1CCN(C(=O)c2ccc3nc(-c4ccccc4)c(-c4ccccc4)nc3c2)CC1,IC50,[2],15.6 µM (active)
C[C@@H]1CCCCO[C@H](CN(C)Cc2ccc(Cl)c(Cl)c2)[C@@H](C)CN([C@H](C)CO)C(=O)c2cc(NC(=O)Nc3cccc4ccccc34)ccc2O1,AC50,[1],3.72 µM (active)
COc1ccc(CN(C)C[C@@H]2OCCCC[C@H](C)Oc3ccc(NS(=O)(=O)c4ccc(C)cc4)cc3C(=O)N([C@H](C)CO)C[C@H]2C)cc1,AC50,Paired box protein Pax-8,16.8 µM (active)
same,AC50,[7],64.6 µM (active)
same,AC50,[8],44.6 µM (active)
CNCCc1ccccn1,IC50,cells [3],> 29.9 µM (inactive)
same,EC50,[4],1.24 µM (active)
same,IC50,[5],6.02 µM (active)
same,EC50,cells [6],> 29.9 µM (inactive)
Cn1c(=O)c2nc(-c3ccccc3)oc2c2ccccc21,AC50,Cytochrome P450 2C19,28.2 µM (inconclusive)
same,AC50,Cytochrome P450 2D6,28.2 µM (inconclusive)
same,AC50,Cytochrome P450 2C9,inconclusive
Cc1csc(NC(=O)CCN2C(=O)c3ccccc3S2(=O)=O)n1,IC50,[2],13.8 µM (active)
Cn1c(CN2CCCCC2)nc2cc(NC(=O)c3ccccc3Cl)ccc21,IC50,[2],13.5 µM (active)
NC(=O)CCCn1c(C(=O)c2cc(Cl)c(N)c(Cl)c2)c2ccc([N+](=O)[O-])cc2[n+]1[O-],IC50,[9],> 20 µM (inactive)
same,IC50,[2],12.3 µM (active)
C[C@@H]1CN([C@@H](C)CO)C(=O)c2cccc(NC(=O)c3ccc(-c4nccs4)cc3)c2O[C@H]1CN(C)CC1CCCCC1,AC50,[1],4.06 µM (active)
C[C@H]1CN([C@@H](C)CO)C(=O)Cc2cc(NC(=O)C3CC3)ccc2O[C@@H]1CN(C)Cc1ccc(C(F)(F)F)cc1,AC50,[1],3.25 µM (active)
c1ccc(CCNc2ncnc3[nH]cnc23)cc1,IC50,cells [3],> 29.9 µM (inactive)
same,EC50,[4],3.94 µM (active)
same,IC50,[5],8.92 µM (active)
same,EC50,cells [6],> 29.9 µM (inactive)
Cc1ccc(S(=O)(=O)Nc2ccc3c(c2)CC(=O)N([C@@H](C)CO)C[C@@H](C)[C@@H](CN(C)Cc2ccc(Oc4ccccc4)cc2)O3)cc1,AC50,[1],4.9 µM (active)
O=C(N/N=C/c1ccc(-c2cccc(Cl)c2)o1)c1ccccn1,AC50,[1],0.15 µM (active)
CC(C)C(=O)Nc1cccc(NC(=O)c2ccc(Cl)cc2Cl)c1,IC50,[2],7.24 µM (active)
O=c1c2ccccc2nc(COc2ccccc2)n1/N=C/c1ccc(O)c(O)c1,IC50,Large T antigen,11.7 µM (active)
same,AC50,[10],8.78 µM (active)
COc1cccc(Nc2nc(C(N)COCc3ccccc3)cs2)n1 (stereo not drawn),IC50,cells [3],21.9 µM (inactive)
same,EC50,[4],2.55 µM (active)
same,IC50,[5],8.79 µM (active)
same,EC50,cells [6],22.2 µM (inactive)
CN1C(=O)NC(c2ccccc2)C2=C1CN(CCc1ccccc1)C2=O (stereo not drawn),IC50,[11],> 47.1 µM (inactive)
same,EC50,[12],> 53 µM (inactive)
same,IC50,cells [3],> 29.9 µM (inactive)
same,EC50,[4],1.03 µM (active)
same,IC50,[5],5.74 µM (active)
same,EC50,cells [6],> 29.9 µM (inactive)
